According to US12479834B2, “Phenol compound or salt thereof” (TAIHO PHARMACEUTICAL CO., LTD., priority 2019, dated 2025):

Legend:
KRAS G12C mutant = molecular target: T1, KRAS G12C mutant (Homo sapiens, UniProt P01116, G12C); assay: Inhibition of SOS1-mediated nucleotide (GDP-GTP) exchange reaction of KRAS G12C mutant, BODIPY FL GDP fluorescence; type: biochemical; conditions: preincubated 25° C. 4 hours with 25 nM KRAS G12C bound with BODIPY FL GDP; SOS1 100 nM, GppNHp 1 μM, 30 minutes
T1 construct: 50 μM G12C K-Ras4B (1-169) protein and 1 mM BODIPY® FL GDP; His tag (N, cleaved yes); made in house; host or cells: E. coli BL21 (DE3)
Excerpt: (§1) SOS1 protein was expressed in E. coli strain BL21 (DE3) by synthesizing a nucleotide sequence encoding the amino acid sequence represented by GenPept ID NP_005624 as a sequence optimized for E. coli by use of GeneArt Technology (Life Technologies Corp.) such that the protein was N-terminally His-tagged and fused with a TEV protease recognition sequence (ENLYFQG). The expressed His-tagged SOS1 (564-1049) was purified through a Ni column, then cleaved at its tag with N-terminally His-tagged TEV protease, and passed through a Ni column again to recover a flow-through fraction to obtain the protein.
Each compound was studied for its inhibitory effect on the exchange reaction of GDP into GppNHp in BODIPY® FL bound with the KRAS G12C mutant by fluorescence measurement using the G12C K-Ras4B (1-169) protein and the SOS1 protein.
For the preparation of the KRAS G12C mutant bound with BODIPY® FL GDP, first, 50 μM G12C K-Ras4B (1-169) protein and 1 mM BODIPY® FL GDP (Invitrogen Corp., G22360) were incubated for 1 hour in a buffer solution (20 mM Tris-HCl (pH 7.5), 50 mM NaCl, and 1 mM DTT) in ice in the presence of 2.5 mM EDTA. Then, MgCl2 was added thereto at a final concentration of 10 mM, then the mixture was incubated at room temperature for 30 minutes, and then, the protein was passed through a NAP-5 column for removal of free nucleotides and used for compound evaluation.
For the measurement of the inhibitory activity of compounds against nucleotide exchange reaction, first, the compound of the present invention was serially diluted with DMSO. Subsequently, the serially diluted solution of the compound of the present invention in DMSO (final concentration of DMSO: 5%) and the KRAS G12C mutant (25 nM) bound with BODIPY® FL GDP were added into a reaction buffer solution (20 mM Tris-HCl (pH 7.5), 100 mM NaCl, 1 mM MgCl2, 2 mM DTT, and 0.1% Tween 20), and the mixture was preincubated at 25° C. for 4 hours. Then, Son of Sevenless Homolog 1 (SOS1, amino acid region: 564-1049) and GppNHp (GMPPNP, Jena Bioscience GmbH, NU-401-50) were added thereto at final concentrations of 100 nM and 1 μM, respectively, and the mixture was reacted for 30 minutes. The change in fluorescence intensity of BODIPY® FL (excitation wavelength: 485 nm, fluorescence wavelength: 520 nm) between immediately after the start of reaction and after 30 minutes from the start of reaction was standardized, and then, the compound concentration at which 50% inhibition was achieved was calculated as IC50 (nM) when the signal value for only DMSO was defined as 0% inhibition and the signal value for no addition of GppNHp was defined as 100% inhibition.

G12C K-Ras4B (1-169) = molecular target: T2, G12C K-Ras4B (1-169) (Homo sapiens, UniProt P01116, G12C); assay: Binding to KRAS G12C mutant, compound binding rate by LC-MS; conditions: final compound concentration 2 μM, 1 μM protein, 2 hours at 25° C.
T2 construct: G12C K-Ras4B (1-169) protein, which was a KRAS G12C mutant; His tag (N, cleaved yes); made in house; host or cells: E. coli BL21 (DE3)
Excerpt: as §1, with “K-Ras4B (1-169)” for “SOS1”, “NP_004976” for “NP_005624”, “K-Ras4B (1-169)” for “SOS1 (564-1049)”, “fraction, which was further purified by anion-exchange chromatography” for “fraction”, “protein. G12C K-Ras4B (1-169) protein, which was a KRAS G12C mutant, was obtained in the same way as in the K-Ras4B(1-169) protein except that glycine at position 12 of the amino acid sequence represented by GenPept ID NP_004976 was mutated to cysteine.” for “protein.”
The K-Ras4B (1-169) protein and the G12C K-Ras4B (1-169) protein were mixed and diluted with a buffer solution (1×TBS and 0.1 mM TCEP) to prepare a protein solution containing 1 μM each of the proteins. Each test compound was dissolved at 10 mM in DMSO and further diluted 10-fold with DMSO to make a 1 mM solution. Then, the solution was diluted 5-fold with DMSO to make a 200 μM solution. The 200 μM solution was further diluted 5-fold to make a […] solution. 1 μL of the 40 μM test compound was added to 19 μL of the 1 μM protein solution such that the final compound concentration was 2 μM. The mixture was stored for 2 hours in an incubator of 25° C., and the reaction was terminated by the addition of 80 μL of a 1×TBS solution containing 0.2% formic acid, followed by LC-MS measurement.
The LC-MS measurement was performed by using Xevo G2-S Q-Tof manufactured by Waters Corp., performing reverse-phase chromatography with a desalting column, and obtaining mass spectra of positive ions by electrospray. For the mass spectra, spectra of polyvalent ions were collectively converted to molecular weights by the MaxEnt technique using OpenLynx software, and then, a compound binding rate was obtained from the ratio of […].
The binding rates of test compounds having a final compound concentration of 2 μM for G12C K-Ras4B (1-169) are shown in the table below. The binding rate for G12C K-Ras4B (1-169) is rated “A” for 80% or more, “B” for 60% or more and less than 80%, “C” for 40% or more and less than 60%, “D” for 20% or more and less than 40%, and “E” for less than 20%.

| Compound | IC50 (KRAS G12C mutant) | binding rate for G12C K-Ras4B (1-169) (G12C K-Ras4B (1-169)) |
| --- | --- | --- |
| C=CC(=O)N1CC(NC(=O)c2c(C)nc(C(O)c3cc(C(C)(C)C)c(Cl)cc3O)n2C)C1 (centres unmarked) [Example 91, N-(1-Acryloylazetidin-3-yl)-2-((5-(tert-butyl)-4-chloro-2-hydroxyphenyl) (hydroxy)methyl)-1,4-dimethyl-1H-imidazole-5-carboxamide] | 128 nM | D (20% or more and less than 40%) |
| C=CC(=O)N1CC(NC(=O)c2ccc(CNc3cc(C4CC4)c(Cl)cc3O)o2)C1 [Example 52, N-(1-Acryloylazetidin-3-yl)-5-(((4-chloro-5-cyclopropyl-2-hydroxyphenyl)amino)methyl)furan-2-carboxamide] | 2090 nM | D (20% or more and less than 40%) |
| C=CC(=O)N1CC(NC(=O)c2cnc(CNc3cc(S(F)(F)(F)(F)F)ccc3O)n2C)C1 [Example 75, N-(1-Acryloylazetidin-3-yl)-2-(((2-hydroxy-5-(pentafluoro-λ6-sulfaneyl)phenyl)amino)methyl)-1-methyl-1H-imidazole-5-carboxamide] | 661 nM | E (less than 20%) |
| Cc1nc(CNc2cc(C(C)(C)C)c(Cl)cc2O)sc1C(=O)NC1CN(C(=O)/C=C/CN(C)C)C1 [Example 88, (E)-2-(((5-(tert-Butyl)-4-chloro-2-hydroxyphenyl)amino)methyl)-N-(1-(4-(dimethylamino)but-2-enoyl)azetidin-3-yl)-4-methylthiazole-5-carboxamide] | 109 nM | C (40% or more and less than 60%) |
| C=CC(=O)N1CC(NC(=O)c2cnc(CNc3cc(CC(F)(F)F)c(Cl)cc3O)n2C)C1 [Example 56, N-(1-Acryloylazetidin-3-yl)-2-(((4-chloro-2-hydroxy-5-(2,2,2-trifluoroethyl)phenyl)amino)methyl)-1-methyl-1H-imidazole-5-carboxamide] | 599 nM | E (less than 20%) |
| C=CC(=O)N1CC(NC(=O)c2cnc(CCc3cc(C(C)(C)C)c(Cl)cc3O)n2C)C1 [Example 90, N-(1-Acryloylazetidin-3-yl)-2-(5-(tert-butyl)-4-chloro-2-hydroxyphenethyl)-1-methyl-1H-imidazole-5-carboxamide] | 549 nM | D (20% or more and less than 40%) |
| C=CC(=O)N1CC(NC(=O)c2cncc(CNc3cc(C(C)(C)C)c(Cl)cc3O)c2)C1 [Example 17, N-(1-Acryloylazetidin-3-yl)-5-(((5-(tert-butyl)-4-chloro-2-hydroxyphenyl)amino)methyl)nicotinamide] | 2070 nM | D (20% or more and less than 40%) |

More lines, in order of falling IC50 (KRAS G12C mutant), values ahead:

| IC50 (KRAS G12C mutant) | binding rate for G12C K-Ras4B (1-169) (G12C K-Ras4B (1-169)) | Compound |
| --- | --- | --- |
| 5970 nM | E (less than 20%) | C=CC(=O)N1CC(NC(=O)c2ccc(CNc3cc(C4CCC4)c(Cl)cc3O)o2)C1 [Example 53, N-(1-Acryloylazetidin-3-yl)-5-(((4-chloro-5-cyclobutyl-2-hydroxyphenyl)amino)methyl)furan-2-carboxamide] |
| 3900 nM | D (20% or more and less than 40%) | C=CC(=O)N1CC(NC(=O)c2ccc(C(C)Nc3cc(C(C)(C)C)c(Cl)cc3O)o2)C1 (centres unmarked) [Example 79, N-(1-Acryloylazetidin-3-yl)-5-(1-((5-(tert-butyl)-4-chloro-2-hydroxyphenyl)amino)ethyl)furan-2-carboxamide] |
| 3010 nM | A (80% or more) | C=CC(=O)N1CC(NC(=O)c2cc(CNc3cc(C(C)(C)C)c(Cl)cc3O)ccn2)C1 [Example 16, N-(1-Acryloylazetidin-3-yl)-4-(((5-(tert-butyl)-4-chloro-2-hydroxyphenyl)amino)methyl)picolinamide] |
| 247 nM | C (40% or more and less than 60%) | C=CC(=O)N1CC(N(C)C(=O)c2cnc(CNc3cc(C(C)(C)C)c(Cl)cc3O)s2)C1 [Example 31, N-(1-Acryloylazetidin-3-yl)-2-(((5-(tert-butyl)-4-chloro-2-hydroxyphenyl)amino)methyl)-N-methylthiazole-5-carboxamide] |
| 233 nM | A (80% or more) | C=CC(=O)N1CC(NC(=O)c2nc(CNc3cc(C(C)(C)C)c(Cl)cc3O)cn2C)C1 [Example 19, N-(1-Acryloylazetidin-3-yl)-4-(((5-(tert-butyl)-4-chloro-2-hydroxyphenyl)amino)methyl)-1-methyl-1H-imidazole-2-carboxamide] |
| 201 nM | C (40% or more and less than 60%) | C=CC(=O)N1CC(N(C)C(=O)c2cnc(CNc3cc(C(C)(C)C)c(Cl)cc3O)o2)C1 [Example 28, N-(1-Acryloylazetidin-3-yl)-2-(((5-(tert-butyl)-4-chloro-2-hydroxyphenyl)amino)methyl)-N-methyloxazole-5-carboxamide] |
| 104 nM | B (60% or more and less than 80%) | C=CC(=O)N1CC(NC(=O)c2cnc(C(C)Nc3cc(C(C)(C)C)c(Cl)cc3O)n2C)C1 (centres unmarked) [Example 80, N-(1-Acryloylazetidin-3-yl)-2-(1-((5-(tert-butyl)-4-chloro-2-hydroxyphenyl)amino)ethyl)-1-methyl-1H-imidazole-5-carboxamide] |
| 37 nM | A (80% or more) | C=CC(=O)N1CC(NC(=O)c2cnc(CNc3cc(C4(C)CC4(F)F)c(Cl)cc3O)n2C)C1 (centres unmarked) [Example 63, N-(1-Acryloylazetidin-3-yl)-2-(((4-chloro-5-(2,2-difluoro-1-methylcyclopropyl)-2-hydroxyphenyl)amino)methyl)-1-methyl-1H-imidazole-5-carboxamide] |
| 16 nM | A (80% or more) | C=CC(=O)N1CC(NC(=O)c2c(I)nc(CNc3cc(C(C)(C)C)c(Cl)cc3O)n2C)C1 [Example 27, N-(1-Acryloylazetidin-3-yl)-2-(((5-(tert-butyl)-4-chloro-2-hydroxyphenyl)amino)methyl)-4-iodo-1-methyl-1H-imidazole-5-carboxamide] |
